Laboratory results: US20210122771A1, “NEW MOLECULAR TWEEZERS AGAINST NEUROLOGICAL DISORDERS AND VIRAL INFECTIONS” (The Regents of the University of California, priority 2018, published 2021)
Where two headings read alike, the source gives them in different places.

Key:
[1] = test system: differentiated rat pheochromocytoma (PC-12) cells; assay: Self-toxicity in differentiated PC-12 cells (MTT and/or LDH); conditions: MTT and/or LDH assays, highest concentration tested 100 μM
Description: (§1) The highest concentration tested was 100 μM. Non-toxic compounds then were tested for their ability to inhibit the toxicity of 10 μM Aβ42 in the same assay. The parent compound 1 was used as a control in both cases.

[2] = CellTiter-Glo cell viability assay on TZM-bl cells; type: cell-based; conditions: human, CellTiter-Glo (ATP)
Description: (§2) FIG. 1, panels A and B, illustrates the results of a cell viability assay with the new molecular tweezers. Indicated concentrations of compounds were added to the cells and incubated for 2 days before […]-GLO® assay (Promega) was performed on TZM-bl cells (HIV-1 target cells) (panel A), or on Vero E6 (ZIKV target cells) (panel B). The experiment was performed in triplicates, raw data were normalized to untreated cells. Data represent mean±SD (n=3).
(§3) To determine the maximally tolerated concentrations of these derivatives in cell culture and to exclude cytotoxic effects in viral infectivity assays, a CellTiter-Glo® assay (Promega) was performed. This assay quantifies the amount of intracellular ATP. The compounds were directly added to TZM-bl cells (a HeLa derived HIV-1 reporter cell line TZM-bl; 20,000 cells/well, FIG. 1, panel A) or Vero E6 cells (a Zika virus (=ZIKV) permissive cell line; 12,000 cells/well, FIG. 1, panel B). Cell viability was quantified two days later by measuring ATP levels.

[3] = test system: Aβ42-induced toxicity; assay: Inhibition of Aβ42 toxicity in differentiated PC-12 cells (MTT/LDH); type: cell-based, rat; conditions: Rattus norvegicus, PC-12, read-out: Inhibition of Aβ42 toxicity, IC50 (MTT)
Description: as §1

[4] = Full 24-h PK profile; type: in vivo, mice; conditions: 24-h profile; for Brain AUC / AUC / half-life: 7 time points; for AUC / half-life / bioavailability: mouse, in vivo; for AUC: read-out: Blood AUC; for bioavailability: read-out: Blood Bioavailability
Description: Based on the 2-time-point screen results, a full 24-h PK profile has been obtained for compounds 13 and 14. In these experiments, the blood and brain levels were measured at 7 time points—0.3, 0.6, 1, 2, 4, 8, and 24 h. Data for 1 are given for reference.

[5] = test system: CCR5-tropic HIV-1 strain; assay: HIV-1 infectivity assay on TZM-bl cells; type: cell-based
Description: FIG. 3, panels A and B, illustrates the results of an HIV-1 infectivity assay with new tweezers on TZM-bl cells. CR5-tropic HIV-1 strain (20 ng/ml p24 antigen) was incubated for 10 min at 37° C. with indicated concentrations of the different compounds before these mixtures were used to infect TZM-bl cells. Three days later, infection rates were determined by measuring β-galactosidase activity.
Infection rates were determined 3 days post infection by detecting β-galactosidase activity in cellular lysates using the Tropix Gal-Screen kit (Applied Biosystems) and an Orion microplate luminometer (Berthold). Values represent % infection (mean) compared to buffer control (FIG. 3, panels A and B). […] Half-maximal inhibitory concentrations (IC50 values), were calculated. […] The selectivity index (SI) is calculated for each compound by dividing its CC50 value by its IC50 value (Table 12).

[6] = target: RGD; type: binding; conditions: fluorometric titration in aqueous buffer at neutral pH; read-out: Dissociation constant Kd, RGD
[7] = CellTiter-Glo cell viability assay on Vero E6 cells; type: cell-based; conditions: African green monkey, CellTiter-Glo (ATP)
Description: as §2, §3

[8] = PK screening in mice, three routes, two time points; conditions: male, mouse, in vivo
Description: Each compound was administered to the mice at 2 mg/kg intravenously (I.V.), 2 mg/kg subcutaneously (S.C.), or 10 mg/kg orally (P.O.).

[9] = target: KAA; type: binding; conditions: fluorometric titration in aqueous buffer at neutral pH; read-out: Dissociation constant Kd, KAA
[10] = test system: ZIKV strain MR766; assay: ZIKV infectivity (MTT) assay on Vero E6 cells; type: cell-based, Zika virus
Description: FIG. 2, panels A and B, illustrates the results of a ZIKV infectivity (MTT) assay with the new molecular tweezers on Vero E6 cells. […] After 3-4 days, the ZIKV induced cytopathic effect was quantified using the MTT assay.
20-μl of MTT solution (5 mg/ml in PBS) were added to 200 μl cells. Following a 3-h incubation at 37° C., cell-free supernatants were discarded and formazan crystals were dissolved in 100 μl of a 1:2 mixture of dimethyl sulfoxide and ethanol. Absorption was measured at 490 nm and baseline corrected at 650 nm using a VMax Kinetic ELISA microplate reader (Molecular Devices). To determine infection rates, sample values were subtracted from untreated control set to 100%. Error bars are standard deviations of replicates (FIG. 2, panels A and B). […] The selectivity index (SI) (Table 12) is calculated for each compound by dividing its CC50 value by the IC50 value.

[11] = test system: enveloped viruses such as HIV-1 and HSV-2; conditions: cited from earlier work
[12] = CC50 value divided by IC50 value

Q: With `O=P(O)(O)Oc1c2c(c(OP(=O)(O)O)c3c1C1CC3c3cc4c(cc31)C1CC4c3ccccc31)C1CC2c2cc3c(cc21)C1CC3c2ccccc21` [Compound 1, CLR01, reference compound] as the compound, how does the Self-toxicity [1] read?
A: Non-toxic

Q: What about the CC50 at 2 days [2] of the same compound?
A: 964 µM

Q: What about the IC50 [3] of the same compound?
A: 69 µM

Q: And the LogBB ([4]; I.V.)?
A: −3.62

Q: And the “Brain AUC” value ([4]; I.V.)?
A: 1.63

Q: What about the “Brain AUC” value ([4]; P.O.) of the same compound?
A: 0

Q: And the LogBB ([4]; S.C.)?
A: 0.34

Q: What about the AUC ([4]; iv, I.V.) of the same compound?
A: 6800 ng·h/mL

Q: And the half-life ([4]; iv, I.V., read-out: Blood T1/2 (converted))?
A: 108 min

Q: And the half-life ([4]; iv, I.V., read-out: Brain T1/2 (converted))?
A: 240 min

Q: And the AUC ([4]; po, P.O.)?
A: 8.94 ng·h/mL

Q: What about the half-life ([4]; po, P.O., read-out: Blood T1/2 (converted)) of the same compound?
A: 78 min

Q: What about the bioavailability ([4]; po, P.O.) of the same compound?
A: 0.1%

Q: And the AUC ([4]; sc, S.C.)?
A: 4740 ng·h/mL

Q: And the half-life ([4]; sc, S.C., read-out: Blood T1/2 (converted))?
A: 63 min

Q: And the half-life ([4]; sc, S.C., read-out: Brain T1/2 (converted))?
A: 54 min

Q: What about the bioavailability ([4]; sc, S.C.) of the same compound?
A: 69.7%

Q: And the “SI (TZM-bl/HIV-1)” value [5, 12]?
A: 26

Q: What about the IC50 ([5]; Human immunodeficiency virus 1, TZM-bl, read-out: IC50 HIV-1) of the same compound?
A: 37 µM

Q: And the Kd [6]?
A: 86 µM

Q: And the CC50 at 2 days [7]?
A: 584 µM

Q: And the bioavailability at 40 min ([8]; 2 mg/kg)?
A: 101%

Q: What about the bioavailability at 4 h ([8]; 2 mg/kg) of the same compound?
A: 86.6%

Q: And the bioavailability at 40 min ([8]; 10 mg/kg)?
A: 0.5%

Q: What about the bioavailability at 4 h ([8]; 10 mg/kg) of the same compound?
A: 0%

Q: What about the Kp at 40 min ([8]; iv, 2 mg/kg) of the same compound?
A: 0

Q: What about the Kp at 4 h ([8]; iv, 2 mg/kg) of the same compound?
A: 0.002

Q: And the Kp at 40 min ([8]; po, 10 mg/kg)?
A: 0

Q: And the Kp at 4 h ([8]; po, 10 mg/kg)?
A: 0

Q: And the Kp at 40 min ([8]; sc, 2 mg/kg)?
A: 0

Q: And the Kp at 4 h ([8]; sc, 2 mg/kg)?
A: 0

Q: And the Kd [9]?
A: 30 µM

Q: What about the “SI (Vero E6/ZIKV)” value [10, 12] of the same compound?
A: 13

Q: And the IC50 ([10]; Zika virus, Vero C1008, read-out: IC50 ZIKV)?
A: 46 µM

Q: What about the “concentrations required to inhibit enveloped viruses such as HIV-1 and HSV-2” value ([11]; Lump et al. (2015) eLife, 4: e05397) of the same compound?
A: median micromolar range

Q: What about the “antiviral activity in the presence of serum” value ([11]; Rocker et al. (2018) Antiviral Res. 152: 26-35) of the same compound?
A: inhibited
